Data as given in patent US20250101028A1, “HETEROCYCLIC COMPOUNDS, COMPOSITIONS THEREOF, AND METHODS OF TREATMENT THEREWITH” (BeiGene, Ltd., priority 2022, published 2025).

molecular target: T1, GST-tagged GDP-loaded KRAS G12V (amino acids 1-169) (Homo sapiens, UniProt P01116, G12V); assay: KRAS G12V probe displacement assay (TR-FRET); format: binding; settings: displacement of biotinylated probe 2 from GDP-loaded KRAS G12V
T1 construct: GST-tagged GDP-loaded KRAS G12V (amino acids 1-169); made in house; host or cells: E. coli
Protocol: KRAS WT and KRAS G12V Probe Displacement Assay
This assay was used to identify compounds which bind to GDP-loaded KRAS protein and are able to displace a biotinylated probe occupying the KRAS binding site. GST-tagged GDP-loaded WT KRAS (amino acids 1-169) and GST-tagged GDP-loaded KRAS G12V (amino acids 1-169) were expressed in E. coli and purified in house. All protein and reaction solutions were prepared in assay buffer containing 50 mM HEPES pH7.5, 50 mM NaCl, 1 mM MgCl2, 1 mM TCEP, 0.01% BSA, and 0.008% Brij-35. Purified WT KRAS (3 nM final concentration) or KRAS G12V protein (2 nM final concentration) was incubated with a 3-fold serially diluted compound in the assay plate (384 well microplate, black, Corning). Plates are incubated at 24° C. for 1 hr. Following the incubation, biotinylated probe 1 (60 nM final assay concentration) for WT KRAS and biotinylated probe 2 (2.5 nM final assay concentration) for KRAS G12V was added to the assay plate, respectively. After 1 hr incubation at 24° C., Mab Anti-GST-Tb cryptate (Cisbio) and Streptavidin-XL665 (Cisbio) were added and further incubated at 24° C. for another 1 hr. The TR-FRET signals (ex337 nm, em665 nm/620 nm) were read on BMG PHERAstar FSX instrument. The inhibition percentage of KRAS protein binding with biotinylated probe in presence of increasing concentrations of compounds was calculated based on the ratio of fluorescence at 665 nm to that at 620 nm. The IC50 value of each compound was calculated from fitting the data to the four-parameter logistic model by Dotmatics.

T1 sequence (P01116 1-169 isoform P01116-2 G12V): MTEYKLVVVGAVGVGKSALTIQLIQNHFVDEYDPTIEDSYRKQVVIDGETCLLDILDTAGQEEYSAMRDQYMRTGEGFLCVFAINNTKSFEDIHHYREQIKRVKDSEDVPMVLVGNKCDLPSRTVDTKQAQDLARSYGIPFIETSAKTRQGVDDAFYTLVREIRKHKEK

**Q.** `N#C[C@@H]1CCN(c2nc(OC[C@@]34CCCN3C[C@H](F)C4)nc3c(F)c(-c4ccc(F)c5sc(N)nc45)c(C(F)(F)F)cc23)C[C@H]1O` (mixture of isomers) [Example 75, 1-(7-(2-amino-7-fluorobenzo[d]thiazol-4-yl)-8-fluoro-2-(((2R,7aS)-2-fluorotetrahydro-1H-pyrrolizin-7a(5H)-yl)methoxy)-6-(trifluoromethyl)quinazolin-4-yl)-trans-3-hydroxypiperidine-4-carbonitrile] was tested. Which IC50 did it give?
**A.** 3.8 nM

**Q.** With `Cc1cc(N)nc(-c2c(Cl)cc3c(N4CC[C@@H](C#N)C[C@@H]4C)nc(OC[C@@]45CCCN4C[C@H](F)C5)nc3c2F)c1C(F)(F)F` (mixture of isomers) [Example 104, 1-(7-(6-amino-4-methyl-3-(trifluoromethyl)pyridin-2-yl)-6-chloro-8-fluoro-2-(((2R,7aS)-2-fluorotetrahydro-1H-pyrrolizin-7a(5H)-yl)methoxy)quinazolin-4-yl)-trans-2-methylpiperidine-4-carbonitrile] as the compound, how does the IC50 read?
**A.** 7 nM

**Q.** How did the IC50 turn out when `Nc1nc2c(-c3c(C(F)(F)F)cc4c(NC5CC5c5ccccc5)nc(OC[C@@]56CCCN5C[C@H](F)C6)nc4c3F)ccc(F)c2s1` (relative stereo) [Example 5, 7-fluoro-4-(8-fluoro-2-(((2R,7aS)-2-fluorotetrahydro-1H-pyrrolizin-7a(5H)-yl)methoxy)-4-(((trans)-2-phenylcyclopropyl)amino)-6-(trifluoromethyl)quinazolin-7-yl)benzo[d]thiazol-2-amine] was run?
**A.** 45 nM

**Q.** With `CC1CC(C#N)CCN1c1nc(OC[C@@]23CCCN2C[C@H](F)C3)nc2c(F)c(-c3ccc(F)c4sc(N)nc34)c(C(F)(F)F)cc12` (relative stereo) [Example 74, 1-(7-(2-amino-7-fluorobenzo[d]thiazol-4-yl)-8-fluoro-2-(((2R,7aS)-2-fluorotetrahydro-1H-pyrrolizin-7a(5H)-yl)methoxy)-6-(trifluoromethyl)quinazolin-4-yl)-trans-2-methylpiperidine-4-carbonitrile] as the compound, how does the IC50 read?
**A.** 1.9 nM

**Q.** For `Nc1nc2c(-c3c(C(F)(F)F)cc4c(NC5CCC(F)C5)nc(OC[C@@]56CCCN5C[C@H](F)C6)nc4c3F)ccc(F)c2s1` (stereo in doubt) [Example 25, 7-fluoro-4-(8-fluoro-4-(((1S,3R)-3-fluorocyclopentyl)amino)-2-(((2R,7aS)-2-fluorotetrahydro-1H-pyrrolizin-7a(5H)-yl)methoxy)-6-(trifluoromethyl)quinazolin-7-yl) benzo[d]thiazol-2-amine], which IC50 is on record?
**A.** 38 nM

**Q.** Which IC50 does the source give for `Nc1nc2c(-c3c(C(F)(F)F)cc4c(N[C@H]5C[C@H]5F)nc(OC[C@@]56CCCN5C[C@H](F)C6)nc4c3F)ccc(F)c2s1` [Example 2, 7-fluoro-4-(8-fluoro-4-(((1S,2R)-2-fluorocyclopropyl)amino)-2-(((2R,7aS)-2-fluorotetrahydro-1H-pyrrolizin-7a(5H)-yl)methoxy)-6-(trifluoromethyl)quinazolin-7-yl)benzo[d]thiazol-2-amine] here?
**A.** 16 nM

**Q.** `CC1CC1Nc1nc(OC[C@@]23CCCN2C[C@H](F)C3)nc2c(F)c(-c3ccc(F)c4sc(N)nc34)c(C(F)(F)F)cc12` (stereo partly drawn) [Example 3, 7-fluoro-4-(8-fluoro-2-(((2R,7aS)-2-fluorotetrahydro-1H-pyrrolizin-7a(5H)-yl)methoxy)-4-((2-methylcyclopropyl)amino)-6-(trifluoromethyl)quinazolin-7-yl)benzo[d]thiazol-2-amine] was tested. Which IC50 did it give?
**A.** 6.2 nM

**Q.** For `CCC1CC1Nc1nc(OC[C@@]23CCCN2C[C@H](F)C3)nc2c(F)c(-c3ccc(F)c4sc(N)nc34)c(C(F)(F)F)cc12` (stereo partly shown) [Example 4], which IC50 is on record?
**A.** 29 nM

**Q.** Which IC50 does the source give for `COC1CC1Nc1nc(OC[C@@]23CCCN2C[C@H](F)C3)nc2c(F)c(-c3ccc(F)c4sc(N)nc34)c(C(F)(F)F)cc12` (stereo partly drawn) [Example 6, 7-fluoro-4-(8-fluoro-2-(((2R,7aS)-2-fluorotetrahydro-1H-pyrrolizin-7a(5H)-yl)methoxy)-4-((2-methoxycyclopropyl)amino)-6-(trifluoromethyl)quinazolin-7-yl)benzo[d]thiazol-2-amine] here?
**A.** 54 nM

**Q.** With `Nc1nc2c(-c3c(C(F)(F)F)cc4c(NC5C6CCCC65)nc(OC[C@@]56CCCN5C[C@H](F)C6)nc4c3F)ccc(F)c2s1` (stereo partly drawn) [Example 8, 4-(4-(bicyclo[3.1.0]hexan-6-ylamino)-8-fluoro-2-(((2R,7aS)-2-fluorotetrahydro-1H-pyrrolizin-7a(5H)-yl)methoxy)-6-(trifluoromethyl)quinazolin-7-yl)-7-fluorobenzo[d]thiazol-2-amine] as the compound, how does the IC50 read?
**A.** 43 nM

**Q.** For `CC(=O)N1C[C@@H]2[C@H](C1)[C@H]2Nc1nc(OC[C@@]23CCCN2C[C@H](F)C3)nc2c(F)c(-c3ccc(F)c4sc(N)nc34)c(C(F)(F)F)cc12` [Example 9, 1-((1R,5S,6s)-6-((7-(2-amino-7-fluorobenzo[d]thiazol-4-yl)-8-fluoro-2-(((2R,7aS)-2-fluorotetrahydro-1H-pyrrolizin-7a(5H)-yl)methoxy)-6-(trifluoromethyl)quinazolin-4-yl)amino)-3-azabicyclo[3.1.0]hexan-3-yl)ethan-1-one], which IC50 is on record?
**A.** 2.5 nM

**Q.** Which IC50 does the source give for `Nc1nc2c(-c3c(C(F)(F)F)cc4c(NC5CCC5)nc(OC[C@@]56CCCN5C[C@H](F)C6)nc4c3F)ccc(F)c2s1` [Example 10, 4-(4-(cyclobutylamino)-8-fluoro-2-(((2R,7aS)-2-fluorotetrahydro-1H-pyrrolizin-7a(5H)-yl)methoxy)-6-(trifluoromethyl)quinazolin-7-yl)-7-fluorobenzo[d]thiazol-2-amine] here?
**A.** 19 nM

**Q.** Which IC50 does the source give for `Nc1nc2c(-c3c(C(F)(F)F)cc4c(N[C@H]5C[C@@H](O)C5)nc(OC[C@@]56CCCN5C[C@H](F)C6)nc4c3F)ccc(F)c2s1` [Example 11, cis-3-((7-(2-amino-7-fluorobenzo[d]thiazol-4-yl)-8-fluoro-2-(((2R,7aS)-2-fluorotetrahydro-1H-pyrrolizin-7a(5H)-yl)methoxy)-6-(trifluoromethyl)quinazolin-4-yl)amino)cyclobutan-1-ol] here?
**A.** 4.4 nM

**Q.** Which IC50 does the source give for `Nc1nc2c(-c3c(C(F)(F)F)cc4c(N[C@H]5C[C@H](O)C5)nc(OC[C@@]56CCCN5C[C@H](F)C6)nc4c3F)ccc(F)c2s1` [Example 12, (trans)-3-((7-(2-amino-7-fluorobenzo[d]thiazol-4-yl)-8-fluoro-2(((2R,7aS)-2-fluorotetrahydro-1H-pyrrolizin-7a(5H)-yl)methoxy)-6-(trifluoromethyl)quinazolin-4-yl)amino)cyclobutan-1-ol] here?
**A.** 3.7 nM

**Q.** With `CO[C@H]1C[C@@H](Nc2nc(OC[C@@]34CCCN3C[C@H](F)C4)nc3c(F)c(-c4ccc(F)c5sc(N)nc45)c(C(F)(F)F)cc23)C1` [Example 13, 7-fluoro-4-(8-fluoro-2-(((2R,7aS)-2-fluorotetrahydro-1H-pyrrolizin-7a(5H)-yl)methoxy)-4-(((cis)-3-methoxycyclobutyl)amino)-6-(trifluoromethyl)quinazolin-7-yl)benzo[d]thiazol-2-amine] as the compound, how does the IC50 read?
**A.** 20 nM

**Q.** With `CO[C@H]1C[C@H](Nc2nc(OC[C@@]34CCCN3C[C@H](F)C4)nc3c(F)c(-c4ccc(F)c5sc(N)nc45)c(C(F)(F)F)cc23)C1` [Example 14, 7-fluoro-4-(8-fluoro-2-(((2R,7aS)-2-fluorotetrahydro-1H-pyrrolizin-7a(5H)-yl)methoxy)-4-(((trans)-3-methoxycyclobutyl)amino)-6-(trifluoromethyl)quinazolin-7-yl)benzo[d]thiazol-2-amine] as the compound, how does the IC50 read?
**A.** 13 nM

**Q.** With `Nc1nc2c(-c3c(C(F)(F)F)cc4c(N[C@H]5C[C@@H](F)C5)nc(OC[C@@]56CCCN5C[C@H](F)C6)nc4c3F)ccc(F)c2s1` [Example 15, 7-fluoro-4-(8-fluoro-4-(((cis)-3-fluorocyclobutyl)amino)-2-(((2R,7aS)-2-fluorotetrahydro-1H-pyrrolizin-7a(5H)-yl)methoxy)-6-(trifluoromethyl)quinazolin-7-yl)benzo[d]thiazol-2-amine] as the compound, how does the IC50 read?
**A.** 17 nM

**Q.** Which IC50 does the source give for `Nc1nc2c(-c3c(C(F)(F)F)cc4c(N[C@H]5C[C@H](F)C5)nc(OC[C@@]56CCCN5C[C@H](F)C6)nc4c3F)ccc(F)c2s1` [Example 16, 7-fluoro-4-(8-fluoro-4-(((trans)-3-fluorocyclobutyl)amino)-2-(((2R,7aS)-2-fluorotetrahydro-1H-pyrrolizin-7a(5H)-yl)methoxy)-6-(trifluoromethyl)quinazolin-7-yl)benzo[d]thiazol-2-amine] here?
**A.** 14 nM

**Q.** For `Nc1nc2c(-c3c(C(F)(F)F)cc4c(NC5CC(F)(F)C5)nc(OC[C@@]56CCCN5C[C@H](F)C6)nc4c3F)ccc(F)c2s1` [Example 17, 4-(4-((3,3-difluorocyclobutyl)amino)-8-fluoro-2-(((2R,7aS)-2-fluorotetrahydro-1H-pyrrolizin-7a(5H)-yl)methoxy)-6-(trifluoromethyl)quinazolin-7-yl)-7-fluorobenzo[d]thiazol-2-amine], which IC50 is on record?
**A.** 43 nM
